These results are taken from patent publication US10422791B2, “Haptens and conjugates derived from pyocyanin, antibodies thereof, and immunochemical method for detecting infections caused by Pseudomonas aeruginosa” (priority 2013, dated 2019).

The test system of one series is As230 antiserum. Put plainly: Cross-reactivity determinations in the indirect competitive ELISA As230/PC1-BSA (AE). It counts as binding, New Zealand white rabbits. The conditions noted are these: for % RC (cross-reactivity): (IC50 1-hydroxyphenazine/IC50 phenazine compound)x100; for IC50: calibration curves in PBST, coating antigen PC1-BSA (AE), antiserum As230. The method, then: The MALDI-TOF-MS mass spectrometer (mass spectrometer with laser assisted by ionization/desorption matrix with flight time) which it uses to characterize the conjugates of protein was a Bruker 200-Hz SmartBeam (Bruker-Daltonics, Leipzig, Germany). The detection was performed in the positive ion mode, ionized with a laser power set at 70% of the maximum laser intensity of the instrument at a frequency of 10-100 Hz. The pH and the conductivity of all the buffers and solutions was measured with a 540 GLP phMeter and a LF 340 conductivity meter, respectively (WTW, Weilheim, Germany). The polystyrene microtiter plates were from Nunc (Maxisorp, Roskilde, Denmark). The washing steps were carried out using a microplate washer (ELx405 HT (BioTek, Vinooski, Vt., USA)). The absorbencies were read in a SpectramaxPlus (Molecular Devices, Sunnyvale, Calif.) in a wavelength mode of 450 nm. The competition curves were analysed with a four-parameter equation using the SoftmaxPro v4.7 (Molecular Devices) and GraphPad Prism v 4 (GraphPad Software Inc, San Diego, Calif.) software. The standard curve was adjusted to a logistical equation of four parameters according to the formula y=(A−B/[1−(x/C)D])+B, where A is the maximum absorbance, B is the minimum absorbance, C is the concentration which produces 50% of the difference between the maximum and minimum absorbance (or IC50), and D is the gradient in the point of inflection of the sigmoidal curve. Unless indicated otherwise, the data shown correspond to the mean of at least two replicates.
The polyclonal antiserums As230, As231 and As232 were obtained by the immunization of New Zealand white rabbits (female) with weights around 1-2 kg with PC1-HCH (MA) following a protocol already described by Ballesteros et al. (Analytica Chimica Acta 1997, 347, 139). The evolution of the titers of antibodies was assessed by measuring the binding of serial solutions of each antiserum to microtiter plates coated with the homologous BSA conjugate. Once acceptable titers of antibodies are obtained, the animals were exsanguinated and the blood was collected in Vacutainer tubes provided with serum separation gel. The antiserums were obtained by centrifugation and were stored at −80° C. in the presence of 0.02% NaN3.
The microtiter plates were coated with PC1-BSA (AE) (0.125 μg/ml with coating buffer 100 μL/well) during 4 h at 25° C. with adhesive sealants. Then, the plates were washed four times with PBST (300 μL/well) before adding the standards (1-hydroxyphenazine or another type of related analytes, at different concentrations from 1000 nM to 0 nM in PBhST), and the samples at different concentrations (50 μl/well), followed by the As230 antiserum solution (1/8000 dilution in PBhST, 50 μl/well). After 30 min at ambient temperature, the plates were washed a further nine times with PBST and the anti-IgG-HRP solution was added (1/6000 in PBST, 100 μl/well). After 30 min of incubation at ambient temperature, the microplates were again washed four times with PBST and the substrate solution was added (100 μl/well) and the enzyme reaction was stopped after 30 min at ambient temperature by H2SO4 4 N (50 μl/well). The absorbencies were measured at 450 nm. The standard curve was adjusted to a logistical equation of four parameters according to the formula y=(A−B/[1−(x/C) D])+B, where A is the maximum absorbance, B is the minimum absorbance, C is the concentration that produces 50% of the difference between the maximum absorbance and minimum absorbance of the absorbance (or IC50), and D is gradient in the point of inflection of the sigmoidal curve. The limit of detection (LOD) is defined as the concentration which gives 90% response of the maximum absorbance (IC90) (see FIG. 1 and table 1).
Stock solutions were prepared of different compounds structurally related with pyocyanin and 1-hydroxyphenazine (10 mM in dimethyl sulfoxide) and they were stored at 4° C. […]

The nature of series [1]: Conversion of pyocyanin into 1-hydroxyphenazine by NaOH, controlled by HPLC-UV. It counts as physicochemical. The conditions noted are these: 1 M NaOH, 20 min at a.t., phenazine as internal standard. The method, then: A 2M NaOH solution (250 μL) was added to a vial containing pyocyanin (10 mM, 25 μL) in 10 mM PBS (85 μL), previously spiked with phenazine (500 μM, 140 μL). The progress of the reaction was monitored by extracting aliquots (10 μL) from the reaction solution at various time intervals, diluting them with 250 mM PBS (90 μL) and adding 1 M HCl (10 μL) to neutralize the pH.
Therefore, it was necessary to develop a simple method to convert pyocyanin in 1-hydroxyphenazine with a good yield. This could be achieved by treating pyocyanin solutions with 1 M NaOH during 20 min at a.t. […] As shown in FIG. 2 (bottom), a good correlation was observed (R^2=0.943) between the sample measurements and the spiked samples for the detection of pyocyanin once hydrolyzed.

With `COS(=O)(=O)[O-].C[n+]1c2ccccc2nc2ccccc21` [Methyl 5-methylphenazine sulfate], in the series on As230 antiserum, the “% RC (cross-reactivity)” value was 0.4% and the IC50 was found to be 0.14 µM.
`Cn1c2cccc(=O)c-2nc2ccccc21` [Pyocyanin, pyocyanin]: in the series with As230 antiserum, the “% RC (cross-reactivity)” value is listed as under 0.1% and the IC50 is over 0.8 µM. Moreover, the “% RC (cross-reactivity)” value in the series on As230 antiserum (listed as pyocyanin) is “less than 0.1%”. Moreover, the “conversion of pyocyanin in 1-hydroxyphenazine (hydrolysis of the methyl group)” value in series [1] was “quantitative”.
For the compound `O=C(O)c1ccc2nc3ccccc3nc2c1` [Phenazine-2-carboxylic acid], in the series with As230 antiserum, the “% RC (cross-reactivity)” value is listed as under 0.1% and the 50% inhibitory concentration (IC50) was over 0.8 µM.
With `Oc1cccc2nc3ccccc3nc12` [1-hydroxyphenazine], in the series with As230 antiserum, the “% RC (cross-reactivity)” value was 100% and the IC50 is 0.00062 µM.
On to `c1ccc2nc3ccccc3nc2c1` [Phenazine], for which, in the series with As230 antiserum, the “% RC (cross-reactivity)” value is given as under 0.1% and the IC50 is over 0.8 µM.
